Experimental data as given in article PMC8286840, “Identifying SARS-CoV-2 antiviral compounds by screening for small molecule inhibitors of Nsp3 papain-like protease” (Biochemical Journal, 2021).
Structures can show the parent of a compound that is named as a salt. Where two headings read alike, the source gives them in different places. Where no end group is shown, it is not given here.

How the values were obtained:
[1] = target: T1, SARS-CoV-2 PLpro (nsp3 1564–1878) (Severe acute respiratory syndrome coronavirus 2, UniProt P0DTD1); test: biochemical; set-up: FRET-quenched peptide (Pro3) cleavage by PLpro, 10 min pre-incubation, slope over 20 min, normalised to no-compound control; conditions: read-out: % of control remaining
Method: The plates were organized with columns 3–22 containing the compounds; the remaining columns were used for reaction controls including substrate only and substrate with enzyme but no compound (Figure 3Aii). The PLpro enzyme was pre-incubated with the compounds for 10 min, and then the reaction was initiated by the addition of substrate. […] We incubated the inhibitors with PLpro before the enzymatic reaction so that the slow-binding inhibitors will not be missed out [21]. […] Fluorescence was read on a Spark multimode microplate reader (Tecan) with an excitation wavelength at 330 nm and emission wavelength at 420 nm. […] An amount of 5 µl of the enzyme was pre-incubated with compounds for 10 min before the addition of 15 µl substrate. Fluorescence was monitored at 2 min for 20 min with 3 min intervals giving a total of seven readings.

[2] = target: T1, SARS-CoV-2 PLpro (nsp3 1564–1878); test: biochemical; set-up: FRET-quenched peptide (Pro3) cleavage by PLpro, 10 min pre-incubation, slope over 20 min, normalised to no-compound control; conditions: read-out: % of control remaining; remark: listed apart in the source

## CN1CCC(Nc2ncc3ncnc(Nc4ccc(F)c(Cl)c4)c3n2)CC1 [BIBX 1382 dihydrochloride - N8-(3-Chloro-4-fluorophenyl)-N2-(1-methyl-4-piperidinyl)-pyrimido[5,4-d]pyrimidine-2,8-diamine dihydrochloride]
[1]; Well no.=2528, low concentration screen
  remaining activity at 1.25 µM: 96.6%
[2]; Well no.=2528, high concentration screen
  remaining activity at 3.75 µM: 91%

## CC1(C)CC(O)CC(C)(C)N1[O] [TEMPOL]
[1]
  remaining activity at 1.25 µM: 93.1%
[2]
  remaining activity at 3.75 µM: 95.9%

## CCOC(=O)[C@]12CC1/C(=N\O)c1ccccc1O2 (mixture of isomers) [CPCCOEt]
[1]; Well no.=286, low concentration screen
  remaining activity at 1.25 µM: 95.2%
[2]; Well no.=286, high concentration screen
  remaining activity at 3.75 µM: 99.4%

## COC(=O)Nc1ccc(-c2nc(N3CCOCC3)c3cnn(C4CCN(C(=O)OC)CC4)c3n2)cc1 [WYE-354]
[1]; Well no.=4769, low concentration screen
  remaining activity at 1.25 µM: 101%
[2]; Well no.=4769, high concentration screen
  remaining activity at 3.75 µM: 103%

## O=C(CCc1ccc(O)cc1)c1c(O)cc(O)cc1O[C@@H]1O[C@H](CO)[C@@H](O)[C@H](O)[C@H]1O [Phlorizine]
[1]; Well no.=3452, low concentration screen
  remaining activity at 1.25 µM: 94.2%
[2]; Well no.=3452, high concentration screen
  remaining activity at 3.75 µM: 97.9%

## C[n+]1cc2c3c(ccc2c2ccc4cc5c(cc4c21)OCO5)OCO3 [Sanguinarine]
[1]; Well no.=3779, low concentration screen
  remaining activity at 1.25 µM: 94.3%
[2]; Well no.=3779, high concentration screen
  remaining activity at 3.75 µM: 90.1%

## Cc1cn([C@H]2C=C[C@@H](CO)O2)c(=O)[nH]c1=O [2',3'-didehydro-3'-deoxythymidine]
[1]; Well no.=445, low concentration screen
  remaining activity at 1.25 µM: 104%
[2]; Well no.=445, high concentration screen
  remaining activity at 3.75 µM: 105%

## CC[C@H](C)C(=O)O[C@H]1C[C@H](O)C=C2C=C[C@H](C)[C@H](CC[C@@H](O)C[C@@H](O)CC(=O)O)[C@H]21 [Pravastatin sodium salt hydrate]
[1]; Well no.=5462, low concentration screen
  remaining activity at 1.25 µM: 96.8%
[2]; Well no.=5462, high concentration screen
  remaining activity at 3.75 µM: 97.8%

## O=c1cc(N2CCOCC2)oc2c(-c3ccccc3)cccc12 [LY-294,002 hydrochloride]
[1]; Well no.=1077, low concentration screen
  remaining activity at 1.25 µM: 93.7%
[2]; Well no.=1077, high concentration screen
  remaining activity at 3.75 µM: 90.8%

## O=c1cc(N2CCOCC2)oc2c(-c3ccccc3)cccc12 [LY 294002 hydrochloride - 2-(4-Morpholinyl)-8-phenyl-4H-1-benzopyran-4-one hydrochloride]
[1]; Well no.=2344, low concentration screen
  remaining activity at 1.25 µM: 97.3%
[2]; Well no.=2344, high concentration screen
  remaining activity at 3.75 µM: 98.8%

## O=C(c1ccc(F)cc1)C1CCN(CCn2c(=O)[nH]c3ccccc3c2=O)CC1 [Ketanserin (tartrate)]
[1]; Well no.=6519, low concentration screen
  remaining activity at 1.25 µM: 100%
[2]; Well no.=6519, high concentration screen
  remaining activity at 3.75 µM: 103%

## COc1ccc2c(c1OC)CN1CCc3cc4c(cc3C1C2)OCO4 (stereo not shown) [Tetrahydroberberine]
[1]; Well no.=6656, low concentration screen
  remaining activity at 1.25 µM: 97.9%
[2]; Well no.=6656, high concentration screen
  remaining activity at 3.75 µM: 99.7%

## N#CC(=C(/N)Sc1ccccc1N)/C(C#N)=C(\N)Sc1ccccc1N [U0126]
[1]; Well no.=1240, low concentration screen
  remaining activity at 1.25 µM: 99.2%
[2]; Well no.=1240, high concentration screen
  remaining activity at 3.75 µM: 101%

## Cc1ccc(C(=O)Nc2ccc(S(=O)(=O)O)c3cc(S(=O)(=O)O)cc(S(=O)(=O)O)c23)cc1NC(=O)c1cccc(NC(=O)Nc2cccc(C(=O)Nc3cc(C(=O)Nc4ccc(S(=O)(=O)O)c5cc(S(=O)(=O)O)cc(S(=O)(=O)O)c45)ccc3C)c2)c1 [Suramin]
[1]; Well no.=1622, low concentration screen
  remaining activity at 1.25 µM: 99.2%
[2]; Well no.=1622, high concentration screen
  remaining activity at 3.75 µM: 96.7%

## Cn1c(=O)c(-c2c(Cl)cccc2Cl)cc2cnc(Nc3ccc(N4CCOCC4)cc3)nc21 [PD173952]
[1]; Well no.=5415, low concentration screen
  remaining activity at 1.25 µM: 103%
[2]; Well no.=5415, high concentration screen
  remaining activity at 3.75 µM: 108%

## CC[C@]1(O)C[C@@H]2CN(CCc3c([nH]c4ccccc34)[C@@](C(=O)OC)(c3cc4c(cc3OC)N(C)[C@H]3[C@@](O)(C(=O)OC)[C@H](OC(C)=O)[C@]5(CC)C=CCN6CC[C@]43[C@@H]65)C2)C1 [Vinblastine]
[1]; Well no.=2165, low concentration screen
  remaining activity at 1.25 µM: 101%
[2]; Well no.=2165, high concentration screen
  remaining activity at 3.75 µM: 103%

## COc1ccc2cc1Oc1ccc(cc1)C[C@H]1c3cc(c(OC)cc3CCN1C)Oc1c(OC)c(OC)cc3c1[C@@H](C2)N(C)CC3 [Isotetrandrine]
[1]; Well no.=3365, low concentration screen
  remaining activity at 1.25 µM: 100%
[2]; Well no.=3365, high concentration screen
  remaining activity at 3.75 µM: 98.1%

## DRVYVHPF [Angiotensin II 5-valine]
[1]; Well no.=7899, low concentration screen
  remaining activity at 1.25 µM: 98.8%
[1]; Well no.=7986, low concentration screen
  remaining activity at 1.25 µM: 90.3%
[2]; Well no.=7899, high concentration screen
  remaining activity at 3.75 µM: 97.5%
[2]; Well no.=7986, high concentration screen
  remaining activity at 3.75 µM: 89.7%

## CCCN1CCCC[C@H]1C(=O)Nc1c(C)cccc1C [Ropivacaine hydrochloride]
[1]; Well no.=5891, low concentration screen
  remaining activity at 1.25 µM: 98.9%
[2]; Well no.=5891, high concentration screen
  remaining activity at 3.75 µM: 97.5%
